Results: US20200087703A1, “METABOLIC LABELING OF BACTERIAL TEICHOIC ACIDS CELL WALL” (priority 2017, published 2020)

Columns and labels:
S. pneumoniae [1] = settings: grown 4 hours with 30 μM, then 25 μM DIBO Alexa Fluor 5 min
From the text: (§1) The choice was oriented towards a rapid click reaction involving an azide function carried by the choline and the strained dibenzoannulated cyclooctyne DIBO carrying the fluorophore. […] For subsequent click reaction, fluorescent DIBO offers a compromise between stability and rapidity with a choice of commercially available fluorophores.

S. pneumoniae [2] = settings: 15 seconds incubation, then DIBO-ATTOS 488 for 5 min
Description: The reaction is stopped by three washes with 1 ml of cold PBS. The bacterium is then re-suspended in 20-40 μl of PBS and observed immediately by fluorescence microscopy.

S. pneumoniae R800 = settings: C-medium without choline, 30 μM
Description: FIG. 15. […] In C-medium without choline (*), with 30 μM azidocholine (†) or choline (‡).
as §1

S. pneumoniae live cells = test: TA metabolic labeling on pneumococcal live cells (CuAAC with coumarin, fluorescence microscopy); assay type: cell-based, Streptococcus pneumoniae; settings: copper 50 μM, THPTA, 30 min, five independent experiments
From the text: FIG. 10. TA metabolic labeling on pneumococcal live cells. A. Detection of metabolically incorporated propargyl-choline in S. pneumoniae living cells after bioorthogonal reaction. (i) and (ii) refer to two different stages of division. Membrane and septal TA labeling are indicated by black and white arrow heads, respectively. Phase contrast and fluorescence images in the presence (left panel) or absence of propargyl-choline (right panel) are shown. Scale bar=1 μm. B. Electron micrographs of pneumococcal cells at division stages (i) and (ii) as shown in A. C.
For bioorthogonal reactions, 10 ml of Cmed-choline and 10 ml of C-medium containing 4 μg/ml of propargyl-choline were inoculated at OD600 nm of 0.05 with aliquots of cells conditioned in C-medium as described above. The growth was pursued at 37° C.-5% CO2 for 3 hours until OD600 nm of 0.2-0.25 was reached, which corresponds to the early exponential growth phase. […]
Pneumococcal cells were transferred to microscope slides and observed using an Olympus BX61 optical microscope equipped with a UPFLN 100× O-2PH/1.3 objective and a QImaging Retiga-SRV 1394 cooled charge-coupled device camera. […] The cells are then sorted by their length value and the fluorescence values are plotted as a heat map. […]

Compound | cell surface labeling pattern (S. pneumoniae [1]) | labeling quality after short pulse (S. pneumoniae [2]) | ability to replace choline for growth (S. pneumoniae R800) | fluorescent signal ratio propargyl-choline/choline (S. pneumoniae live cells)
1-azidoethyl-choline | Uniform cell surface labeling | high-quality labeling | efficiently replaced choline to allow growth | –
C#CC[N+](C)(C)CCO [propargyl-choline] | – | – | – | 4.28±0.8
